Data from patent US20240182406A1, “COMPOUNDS AS SOLUBLE EPOXIDE HYDROLASE INHIBITORS” (UNIVERSITAT DE BARCELONA, priority 2021, published 2024).

Legend:
SH-SY5Y cells = conditions: 100 μM, 24 h
Description: 50 ul of Cell titer Glo reagent was added to each well and incubated for 10 min.

[1] = In vitro determination of microsomal stability; assay type: in vitro ADME; conditions: human microsomes, 37° C., samples at 0-60 min
Description: The human recombinant microsomes employed were purchased from Tebu-Xenotech. […] Samples (75 μL) were taken from each well at 0, 10, 20, 40 and 60 min and transferred to a plate containing 4° C. 75 μL acetonitrile and 30 μL of 0.5% formic acid in water were added for improving the chromatographic conditions. The plate was centrifuged (46000 g, 30 min) and supernatants were taken and analyzed in a UPLC-MS/MS (Xevo-TQD, Waters) by employing a BEH C18 column and an isocratic gradient of 0.1% formic acid in water:0.1% formic acid acetonitrile (60:40). The metabolic stability of the compounds was calculated from the logarithm of the remaining compounds at each of the time points studied.

human primary astrocytes = experiment: T/I/C-induced reactive astrocyte conversion, qPCR and Western blotting; assay type: cell-based
Description: To validate the inhibition efficacy of sEH, 10^6 astrocytes isolated from CD1 mouse brain (Sciencell #M1800) or primary human astrocyte (Sciencell #1800) were seeded onto 6 well culture plates in astrocyte medium (Sciencell #1831 or #1801).
Total RNAs were isolated from microglia or astrocyte using a Quick-RNA kit (Zymo Research, Inc., Irvine, CA, USA). The concentration of total RNAs was measured using a UV-Vis spectrophotometer (NanoDrop8000, Thermo Fisher Scientific Inc., Wilmington, DE, USA) and reverse-transcribed with a high-capacity cDNA reverse transcription kit (Applied Biosystems, Carlsbad, CA, USA). Gene expression was quantified by Fast SYBR green real-time PCR on a Quantstudio 5 system (Applied Biosystems). The primer sequences are listed below (Table 8). Data were analyzed according to the comparative Ct method. Glyceraldehyde 3-phosphate dehydrogenase (Gapdh) was used to normalize the amounts of cDNA within each sample.
Proteins were extracted from microglia or astrocyte by RIPA buffer (Thermo Fisher Scientific Inc.). Extracted proteins were separated by SDS/PAGE and subsequently transferred to nitrocellulose membranes (Bio-Rad, Hercules, CA, USA). […] Membranes visualized on Odyssey (LI-COR Biosciences, NE, USA).

C57BL/6 mice = experiment: Cerulein-induced acute pancreatitis murine model; assay type: in vivo, mouse
Excerpt: Acute pancreatitis (AP) is a potentially life-threatening gastrointestinal disease, and its incidence has been increasing over the last few decades. The onset of the disease is thought to be triggered by intra-acinar cell activation of digestive enzymes that results in interstitial edema, inflammation and acinar cell death that often leads to a systemic inflammation response. […] The experimental procedure for the in vivo efficacy study followed already published protocols (Mol Pharmacol. 2015 August; 88(2):281-90)
In vivo efficacy study. Forty-one male C57BL/6 mice (eight week-old; approximately 24 g) were supplied by Envigo (Barcelona, Spain) (Ref. 16512). During the experimental procedure, animals were identified with permanent marker (tail code numbers). […] Animals were kept in an environmentally controlled room (ventilation, temperature 22±2° C. and humidity 35-65%) on a 12-h light/dark cycle. A period of 7 days of acclimatization underwent between the date of arrival and the start of the procedure. […] The maintenance diet was supplied by Harlan Interfauna Ibérica S. L. (2018 Harlan Teklad Global Diets). Diet will be provided to the animals ad libitum, but they were fasted overnight before first cerulein injection, and food was replaced after last cerulein injection. Tap water was supplied by CASSA (Servei d'Aigües de Sabadell) ad libitum. The animals were maintained in accordance with European Directive for the Protection of Vertebrate Animals Used for Experimental and other Scientific Purposes (86/609/EU). Decree 214/1997 of 30th July. Ministry of agriculture, livestock and fishing of the Autonomous Government of Catalonia, Spain. Royal Decree 53/2013 of 1st February (Spain). All the experimental procedures were approved by the Ethical Committee on human and animal experimentation (CEEAH) of Universitat Autònoma de Barcelona (UAB) (procedure number: 4107) and by the Animal Experimentation Commission of the Generalitat de Catalunya (Catalan Government) (DAAM: 10146). […]

SMILES: O=C(NC12CC3CC(Cl)(CC(C1)c1ccccc13)C2)N[C@H]1CC[C@H](Oc2ccc(C(=O)O)cc2)CC1 [Example 2, 4-[((1r,4r)-4-(3-(9-chloro-5,6,8,9,10,11-hexahydro-7H-5,9:7,11-dimethanobenzo[9]annulen-7-yl)ureido)cyclohexyl)oxy]benzoic acid]
- neuronal cell toxicity (viability) (SH-SY5Y cells): did not show any neuronal cell toxicity
- Microsomal stability (% remanent) [1]: 89%
- induction of inflammatory mediators Nos and Cox2 mRNA (human primary astrocytes; T/I/C 24 h, qPCR): prevented the induction
- mRNA levels of reactive astrocyte markers Cxcl10 and C3 (human primary astrocytes; T/I/C 24 h, qPCR): significantly reduced
- protein levels of C3 and phosphor-p38 (human primary astrocytes; T/I/C-induced reactive astrocyte, 30 μM (FIG. 5f)): decreased
- histologic analysis of pancreas (H&E), severity of cerulein-induced pancreatitis (C57BL/6 mice; both doses 0.1 and 0.3 mg/kg IP): ameliorated cerulein-induced effects
- body weight change at end of study (C57BL/6 mice; cerulein 50 μg/kg IP x12, single dose 0.3 or 0.1 mg/kg IP, only 0.3 mg/kg significant (p<0.01 vs Cerulein)): increased body weight
- histologic analysis of pancreas (H&E), pancreatic damage, edema, neutrophils infiltration (C57BL/6 mice; higher dose 0.3 mg/kg IP): more efficiently reversed the pancreatic damage, edema and neutrophils infiltration
